Assays:
[1] = test system: membranes of live HeLa cells; assay: In vivo labelling of live cells, confocal laser scanning microscopy; format: cell-based; conditions: live HeLa cells after incubation with KAYA1 labelling solution (FIGS. 2a to 2c)
Procedure: A protocol for the labelling of live cells was optimized for cultured HeLa cells (epithelial, cervical carcinoma), for LnCAP (Prostatacancer, fibroblasts) and VH7 (foreskin fibroblasts) that are adhering to coverslips. Cells are cultured on coverslips in DEMEM (VH7, HeLa) RPMI (LnCAP) with 10% foetal calf serum, 1 mM glutamine and antibiotics and incubated at 37° C. in an atmosphere of 5% CO2. A 5 μM solution of KAYA1 is prepared in a HEPES-Glucose buffer medium containing 115 mM NaCl, 1.2 mM CaCl2, 1.2 mM MgCl2, 1.2 mM K2HPO4, 20 mM HEPES, 10 mM Glucose, pH 7.4. After removing the cell medium the cells are incubated with the labeling solution for 1 minute at 37° C. The labeling solution is removed, the cells washed in 1×PBS and incubated with the cell medium, prior to analysis.
(§1) The System used was a Leica DM IRBE (TSC/SP2) microscope operating with a helium/neon laser. Detection of all probes was visualized with the laser emission line 633 nm, the detection window was realized between 650 nm-800 nm.
CLSM allows the blur from out of focus regions of the fluorescent specimen to be blocked, resulting in crisp, sharp images from well defined planes in the axial direction. Therefore the images presented here show well defined optical sections in z-axis of the microscope.

[2] = test system: cell membranes of fixed cells; assay: In vitro labelling of fixed cells; format: cell-based; conditions: formaldehyde-fixed cells, 5 μM in 1×PBS, 5 minutes at 37° C.
Procedure: Staining the cell membranes of fixed cells is also compatible with KAYA1. For staining, the cells are cultured at the same conditions as described for in vivo labelling. The cells are fixed with HEPEM buffer containing 3.7% formaldehyde, 65 mM PIPES, 30 mM HEPES, 10 mM EGTA, 2 mM MgCl2, pH 6.9 for 15 min. Then the cells are washed twice with 1×PBS for 7.5 min. Finally the cell membranes are stained with KAYA1 (5 μM in 1×PBS) for 5 minutes at 37° C., washed with 1×PBS and covered with Vectashield.
as §1

Solubility of KAYA1 = format: physicochemical
Procedure: The Boc protecting group of compound A is cleaved with trifluoro acetic acid (6.7 ml, 87 mmol) in methanol (3 ml, 74 mmol) for 18 hours at room temperature. After evaporation and recrystallization in anisole KAYA1 was characterized by electrospray mass spectrometry: (Mfound 389.1245 m/e, 391.1611 m/e, Mcalc 388.12 m/e, 390.12 m/e); 1H NMR spectroscopy (CD3OD): S=1.39 ppm (m, 4H), 1.59 ppm (m, 2H), 1.64 ppm (m, 2H), 2.80 ppm (t, 2H), 3.24 ppm (t, 2H), 7.03 ppm (d, 1H), 7.08 ppm (d, 1H), 7.42 ppm (d, 1H), 7.65 ppm (d, 1H), 7.92 ppm (s, 1H); UV-Vis spectrophotometry (Absmax: 574 nm and 623 nm) and fluorimetry (Emmax: 660 nm).

HeLa cell = assay: Colocalization experiments with wheat-germ agglutinin (WGA); format: cell-based; conditions: in vivo stains with KAYA1 compared with WGA in fixed cells (FIGS. 2a to 2c, 3a to 3c)
Source text: Wheat-germ agglutinin (WGA) is a glycoprotein (lectin) that recognizes and binds to specific glycoconjugates such as N-acetylneuraminic acid, N-acetyl glucosamine, membrane glycoprotein, chitin, cartilage, glucosamineglycans, glycolipids, and glycoproteins with sialic acid residues (cf. Monsigny M., Roche A-C., Sene C., raget-Dana R., Delmotte F., Sugar-Lectin Interactions: How does Wheat-germ Agglutinin bind Sialoglycoconjugates?, Eur. J. Biochem., 1980, (104), 147-153; Wright C S., Crystal structure of a wheat germ agglutinin/glycophorin-sialoglycopeptide receptor complex. Structural Basis for cooperative lectin-cell binding, J. Biol. Chem., 1992, 267(20), 14345-52). WGA is commonly used to stain the golgi apparatus, nuclear envelop and plasma membrane of fixed cells.
For the colocalization experiments the cells are stained with KAYA1 at the same conditions as described for in vivo labelling. Then the cells are fixed with HEPEM buffer and the membranes of the cells are permeabilized 30 min at 4° C. with 50 ml 1×PBS containing 50 mg Saponin. After washing the cells with 1×PBS for 5 min at room temperature the cells are incubated 15 min with 50 μg/ml WGA at 37° C. Finally the cells are washed with 1×PBS and covered with Vectashield, prior to analysis.

solubility in methanol (Solubility of KAYA1; methanol): soluble | solubility in water (Solubility of KAYA1; water): moderately soluble
SMILES: NCCCCCCNc1ccc(O)c2c1C(=O)c1c(O)ccc(Cl)c1C2=O [KAYA1, 1-(6-amino-hexylamino)-5-chloro-4,8-dihydroxy-anthraquinone]
membrane structures visualized by the dye [1]: visualizes the cytoplasmatic membrane, the nuclear membrane and the membrane of certain organelles such as endoplasmatic reticulum and golgi apparatus | staining of cell membranes of fixed cells [2]: compatible | similarity of stained regions with binding regions of WGA (HeLa cell): high similarity with the specific binding regions of WGA
